Measured values published in patent US7550469B2, “Heterocyclic amide derivatives and their use as dopamine D3 receptor ligands” (Aventis Pharmaceuticals Inc., priority 2001, dated 2009).
Read-outs that look alike come from different tables or passages of the source.

Target: T1, cloned human dopamine D3 receptors (Homo sapiens, UniProt P35462)
T1 construct: expressed in transfected cells; membrane homogenate
Experiment: [N-Methyl-3H]Spiroperidol binding to cloned human dopamine D3 receptors (Protocol 1)
How it was run: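 Radioligand displacement with [N-methyl-3H]spiroperidol used a physiological-salt Tris buffer (0.05 M, pH 7.7; NaCl 120 mM, KCl 5 mM, CaCl2 2 mM, MgCl2 1 mM) and membranes of a high-expressing stable CHO clone carrying human D3. Total ligand concentration came from measured added CPM; 0.1% ascorbic acid was optional for oxidizable compounds.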

[1] = the 13th table, unit inferred, read-out: D3Ki

T1 sequence (P35462 whole entry): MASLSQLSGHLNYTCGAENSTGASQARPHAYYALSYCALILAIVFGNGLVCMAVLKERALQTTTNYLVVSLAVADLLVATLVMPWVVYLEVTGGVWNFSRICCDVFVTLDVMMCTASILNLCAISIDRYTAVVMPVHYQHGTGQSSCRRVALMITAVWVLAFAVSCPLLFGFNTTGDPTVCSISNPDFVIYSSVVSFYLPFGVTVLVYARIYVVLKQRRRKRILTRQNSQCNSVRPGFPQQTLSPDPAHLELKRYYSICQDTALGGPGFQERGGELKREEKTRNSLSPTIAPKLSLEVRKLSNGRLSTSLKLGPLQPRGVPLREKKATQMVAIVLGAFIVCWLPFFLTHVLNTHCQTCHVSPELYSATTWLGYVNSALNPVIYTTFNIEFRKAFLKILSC

SMILES: O=C(NCCCCN1CCN(c2csc3cc(C(F)(F)F)ccc23)CC1)c1ccc(Br)cc1 [compound 815551]
- Ki (read-out: D3K1): 4.3 nM

SMILES: O=C(NCCCCN1CCN(c2csc3cc(C(F)(F)F)ccc23)CC1)c1ccc(-c2ccccc2)cc1 [815547A]
- Ki (Table 2, read-out: D3K1): 3.43 nM

SMILES: O=C(NCCCCN1CCCN(c2csc3cc(F)ccc23)CC1)c1ccc2ccccc2c1 [822223G]
- Ki [1]: 2.45 nM

SMILES: O=C(NCCCCN1CCN(c2csc3cc(C(F)(F)F)ccc23)CC1)c1c(F)cccc1F [compound 815557]
- Ki (read-out: D3K1): 8.7 nM

SMILES: CC(C)(C)c1ccc(C(=O)NCCCCN2CCCN(c3csc4cc(F)ccc34)CC2)cc1 [compound 822198]
- Ki [1]: 10.5 nM

SMILES: COc1ccccc1C(=O)NCCCCN1CCN(c2csc3cc(C(F)(F)F)ccc23)CC1 [compound 815554]
- Ki (read-out: D3K1): 9.7 nM

SMILES: O=C(NCCCCN1CCN(c2csc3cc(C(F)(F)F)ccc23)CC1)c1ccc(Cl)cc1 [compound 815548]
- Ki (read-out: D3K1): 1.6 nM

SMILES: O=C(NCCCCN1CCCN(c2csc3cc(F)ccc23)CC1)c1cc2ccccc2s1 [822224G]
- Ki [1]: 1.07 nM

SMILES: O=C(NCCCCN1CCN(c2csc3cc(C(F)(F)F)ccc23)CC1)c1cc2ccccc2s1 [814238A]
- Ki (read-out: D3K1): 1.9 nM

SMILES: O=C(NCCCCN1CCCN(c2csc3cc(F)ccc23)CC1)c1ccc(OC(F)(F)F)cc1 [compound 822152]
- Ki [1]: 4.5 nM

SMILES: O=C(NCCCCN1CCCN(c2csc3cc(F)ccc23)CC1)c1cccc(F)c1 [compound 822154]
- Ki [1]: 5.3 nM

SMILES: CCOc1ccc(C(=O)NCCCCN2CCN(c3csc4cc(C(F)(F)F)ccc34)CC2)cc1 [compound 815541]
- Ki (read-out: D3K1): 12 nM

SMILES: COc1ccccc1C(=O)NCCCCN1CCCN(c2csc3cc(F)ccc23)CC1 [compound 822157]
- Ki [1]: 1.4 nM

SMILES: O=C(NCCCCN1CCN(c2csc3cc(C(F)(F)F)ccc23)CC1)c1ccc(C(F)(F)F)cc1 [compound 815555]
- Ki (read-out: D3K1): 7 nM

SMILES: O=C(NCCCCN1CCN(c2csc3cc(C(F)(F)F)ccc23)CC1)c1ccc2c(c1)OCO2 [compound 815544]
- Ki (read-out: D3K1): 1.7 nM

SMILES: O=C(NCCCCN1CCN(c2csc3cc(C(F)(F)F)ccc23)CC1)c1ccc(F)cc1F [compound 815542]
- Ki (read-out: D3K1): 5.6 nM

SMILES: O=C(NCCCCN1CCN(c2csc3cc(C(F)(F)F)ccc23)CC1)c1sc2ccccc2c1Cl [compound 815546]
- Ki (read-out: D3K1): 49 nM

SMILES: CCCCOc1ccc(C(=O)NCCCCN2CCN(c3csc4cc(C(F)(F)F)ccc34)CC2)cc1 [compound 815545]
- Ki (read-out: D3K1): 38.6 nM

SMILES: O=C(NCCCCN1CCN(c2csc3cc(C(F)(F)F)ccc23)CC1)c1ccco1 [compound 815556]
- Ki (read-out: D3K1): 6.4 nM

SMILES: O=C(NCCCCN1CCCN(c2csc3cc(F)ccc23)CC1)c1ccco1 [S981843]
- Ki [1]: 0.066 nM
